# How the values were obtained:
# WT EGFR (A431 cells) = WT EGFR (A431 cells) (Homo sapiens (Human), UniProt P00533); test: EGFR signaling immunoblot (1 hr) in A431 cells; type: cell-based
# Protocol: (§1) A431 human epidermoid carcinoma, H1975 human NSCLC and HCC827 human NSCLC adenocarcinoma cells were obtained from the American Type Culture Center (Manassas, Va.). A431 cells were grown in DMEM (Invitrogen, Carlsbad, Calif.) supplemented with 10% FBS (HyClone, South Logan, Utah) and 1% Penicillin-Streptomycin (P/S, Lonza, Walkersville, Md.).
# (§2) All primary antibodies were obtained from Cell Signaling (Danvers, Mass.) and used at 1:1000. Secondary antibodies were used at 1:10,000. Goat anti-mouse IgG IRDye 800CW antibody was obtained from LiCor Biosciences (Lincoln, Nebr.) and goat anti-rabbit IgG Alexa Fluor 680 was obtained from Invitrogen.
# (§3) Cells were grown in 12-well plates (Corning, Coring, N.Y.) to 90% confluence and then incubated in low-serum (0.1% FBS) media for 16-18 hr. […] A431 cells were then stimulated with 50 ng/ml EGF (Peprotech, Rocky Hill, N.J.) for 15 min. After treatment, cell monolayers were washed with cold PBS (Invitrogen) and immediately lysed by scrapping into 60 uL cold Cell Extraction Buffer (Invitrogen) supplemented with Complete Protease inhibitors (Roche, Indianapolis, Ind.) and PhosphoSTOP (Roche) phosphatase inhibitors.
# (§4) Phospho-protein signals were quantitated using Odyssey Infrared Imaging (Li-Cor Biosciences).
# Blots were normalized as indicated above. […]
# [1] = biological target: EGFR L858R/T790M (H1975 cells) (Homo sapiens (Human), UniProt P00533, L858R/T790M); test: EGFR signaling immunoblot (1 hr) in H1975 cells; type: cell-based
# Protocol: as §1, §2, §3, §4
# Blots were normalized as indicated above. […] Normalized data was fitted using a sigmoidal curve analysis program (Graph Pad Prism version 5) with variable Hill slope to determine the EC50 values.
# A431 cells (WT EGFR) = test: Cell proliferation (CellTiter Glo, 72 hr), A431; type: cell-based; conditions: Homo sapiens, A-431; A431 cells, 72 hr; read-out: WT EGFR GI50
# Protocol: as §1
# (§5) Growth inhibition (GI50) values were determined by Graph Pad Prism.
# [2] = tested on: H1975 cells (EGFR L858R/T790M); test: Cell proliferation (CellTiter Glo, 72 hr), H1975; type: cell-based, human
# Protocol: as §1, §5
# [3] = tested on: HCC827 cells (EGFR delE746-A750); test: Cell proliferation (CellTiter Glo, 72 hr), HCC827; type: cell-based, human
# Protocol: as §1, §5
# EGFR T790M/L858R = EGFR T790M/L858R (Homo sapiens (Human), UniProt P00533, L858R/T790M); conditions: MS analysis
compound,measurement,setting,value
"C=CC(=O)Nc1cccc(Oc2nc(Nc3ccc(OC)c(OC)c3OC)ncc2Cl)c1 [Compound I-7, N-(3-(5-chloro-2-(2,3,4-trimethoxyphenylamino)pyrimidin-4-yloxy)phenyl)acrylamide]","WT-EGFR sparing in A431 cells (pEGFR, pS6)",WT EGFR (A431 cells),completely WT-EGFR sparing
same,inhibition of pEGFR and downstream S6 Ribosomal protein in H1975 cells,"[1]; H1975 vs A431, FIG. 1 and 2",mutant selective
same,Ratio WT/mutant,"[1]; signaling EC50, WT (A431) vs H1975",>50
same,GI50,A431 cells (WT EGFR),> 1000 nM
same,GI50,"[2]; Homo sapiens, NCI-H1975, H1975 cells, 72 hr, read-out: H1975 GI50",100 to 500 nM
same,Ratio WT/mutant,"[2]; proliferation GI50, WT (A431) vs H1975",>10
same,GI50,"[3]; Homo sapiens, HCC827 cells, 72 hr, read-out: HCC827 GI50",100 to 500 nM
same,Ratio WT/mutant,"[3]; proliferation GI50, WT (A431) vs HCC827",>15
same,covalent modification of EGFR T790M/L858R,EGFR T790M/L858R,covalently modify

# — patent US10081606B2, “Heteroaryl compounds and uses thereof” (Celgene CAR LLC, priority 2010, dated 2018)
